Where two headings read alike, the source gives them in different places.
How the values were obtained:
ICR mice [1] = assay: Acetic acid-induced writhing model; assay type: in vivo; conditions: acetic acid induced pain model, oral or i.v. administration, writhes for 15 min; for ED50: Mus musculus, 0.25 h, read-out: In-vivo ED50
Experimental: (§1) All the animal experiments were carried out in ICR mice, bred in-house. Animals were housed in groups of 6 animals per cage, for a week, in order to habituate them to vivarium conditions (25±4° C., 60-65% relative humidity, 12:12 h light: dark cycle, with lights on at 7.30 am). All the animal experiments were carried out according to the internationally valid guidelines following approval by the ‘Zydus Research Center animal ethical committee’.
Following oral or i.v. administration of test compounds, mice are rested for 5 min before i.p. injection with 10 ml/kg of 0.6% v/v acetic acid in normal saline. […] A writhe is defined as a constriction of the abdominal area, often with extension of the hind legs. Percentage maximum possible effect (MPE) was calculated as below:
% MPE=100−[(No. of writhes in treated mice/No. of writhes in vehicle treated mice)]×100
ED50 dose is determined using GraphPad Prism.

kappa opioid receptor [2] = target: T1, kappa opioid receptor (Mus musculus, UniProt P33534); assay: Ex-vivo KOR agonistic activity, electrically stimulated mouse vas deferens (MVD) model
T1 construct: from tissue; host or cells: mouse vas deferens (male Swiss Albino mice)
Experimental: a) Ex-Vivo KOR Agonistic Activity Testing, Using Electrically Stimulated Mouse Vas Deferens (MVD) Model:
Ex-vivo, the kappa opioid receptor agonistic activity of test compounds were tested on the electrically stimulated mouse vas deferens (MVD) preparations (Henderson et al., Br. J. Pharmacol., 46, 764-766, 1972; Portoghese et al., Life Sci. 36, 801-805, 1985) and IC50 were determined. In general, vas deferentia were taken from male Swiss Albino mice (30-40 g) and suspended in 8 ml organ baths, at 31° C., containing modified Krebs-Henseleit solution, without magnesium sulphate. Each vas deferens was equilibrated for 45 min at 2.6 mN tension and then stimulated at supramaximal voltage with five 1 ms pulses, at a frequency of 0.1 Hz. Concentration-response curves were determined by cumulative dosing. Inhibitory Concentration, 50% (IC50) values were determined by Sigmoidal dose-response (variable slope) equation, using Prizm v 6.01. The kappa opioid receptor specificity was determined by rightward shift in concentration-response curves in presence of 1 nM norbinaltorphimine (norBNI), a selective kappa opioid receptor antagonist.

kappa opioid receptor [3] = target: T2, kappa opioid receptor (Homo sapiens, UniProt P41145); assay: Invitro KOR agonistic activity, cAMP based functional assay; assay type: cell-based
T2 construct: grown in complete Ham's F-12 medium

ICR mice [4] = assay: Assessment of CNS effects (spontaneous locomotion, sedation, catalepsy), threshold dose; assay type: in vivo; conditions: lowest dose which shows pharmacodynamic effect (locomotion, sedation, catalepsy), oral or i.v.
Experimental: as §1
Assessment of CNS Effects of Test Compounds
Test compounds were dissolved in normal saline injected by oral or i.v., routes in ICR mice tail vein. […] The dose is scaled down or up if pharmacodynamic effect is present or absent respectively.

[5] = electrically stimulated mouse vas deferens preparation, cumulative dosing, read-out: Ex-vivo IC50
[6] = cAMP direct ELISA, forskolin 20 μM, agonist 20 minutes, read-out: In-vitro EC50

T2 sequence (P41145 whole entry): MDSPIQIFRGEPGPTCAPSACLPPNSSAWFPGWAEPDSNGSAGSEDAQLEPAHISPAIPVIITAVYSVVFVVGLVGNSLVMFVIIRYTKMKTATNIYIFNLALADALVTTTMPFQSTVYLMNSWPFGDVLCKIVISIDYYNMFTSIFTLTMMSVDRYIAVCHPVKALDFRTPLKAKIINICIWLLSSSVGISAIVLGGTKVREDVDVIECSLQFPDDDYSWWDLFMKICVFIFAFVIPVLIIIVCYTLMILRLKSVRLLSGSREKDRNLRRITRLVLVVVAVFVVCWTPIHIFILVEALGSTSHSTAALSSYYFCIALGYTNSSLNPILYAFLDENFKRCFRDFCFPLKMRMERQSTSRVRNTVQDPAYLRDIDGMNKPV
T1 sequence (P33534 whole entry): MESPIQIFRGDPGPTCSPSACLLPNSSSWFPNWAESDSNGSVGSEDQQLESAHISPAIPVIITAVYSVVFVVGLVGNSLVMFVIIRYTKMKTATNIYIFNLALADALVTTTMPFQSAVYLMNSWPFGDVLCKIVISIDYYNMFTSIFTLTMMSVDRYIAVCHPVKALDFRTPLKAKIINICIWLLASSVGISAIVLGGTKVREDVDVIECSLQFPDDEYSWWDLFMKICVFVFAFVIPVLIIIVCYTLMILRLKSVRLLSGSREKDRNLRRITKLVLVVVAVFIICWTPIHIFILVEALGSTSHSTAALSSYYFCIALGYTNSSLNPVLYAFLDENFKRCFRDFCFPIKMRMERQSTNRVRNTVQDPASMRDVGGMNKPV

Row | Compound | IC50 (kappa opioid receptor [2]) [nM] | EC50 (kappa opioid receptor [3]) [nM] | further results
1 | CN(C(=O)COc1ccc(NS(C)(=O)=O)c2cccnc12)[C@H](CN1CC[C@H](O)C1)c1ccccc1 [Compound 6, N-((S)-2-((S)-3-hydroxypyrrolidin-1-yl)-1-phenylethyl)-N-methyl-2-((5-methylsulfonamido)quinolin-8-yloxy)acetamide] | 349 | 0.94 | ED50 (ICR mice [1]): 1.1 mg/kg; CNS TD (ICR mice [4]): 30 mg/kg
2 | CN(C(=O)COc1ccc(NS(C)(=O)=O)c2c1CCCN2)[C@H](CN1CC[C@H](O)C1)c1ccccc1 [Compound 15, N-((S)-2-((S)-3-hydroxypyrrolidin-1-yl)-1-phenylethyl)-N-methyl-2-((8-(methylsulfonamido)-1,2,3,4-tetrahydroquinolin-5-yl)oxy)acetamide] | 0.9 | 0.003 | ED50 (ICR mice [1]): 0.92 mg/kg; CNS TD (ICR mice [4]): 10 mg/kg
3 | CN(C(=O)COc1ccc2c(c1)CCCN2S(C)(=O)=O)[C@H](CN1CC[C@H](O)C1)c1ccccc1 [Compound 20, N-((S)-2-((S)-3-hydroxypyrrolidin-1-yl)-1-phenylethyl)-N-methyl-2-((1-(methylsulfonyl)-1,2,3,4-tetrahydroquinolin-6-yl)oxy)acetamide] | 1740 | 2.12 | ED50 (ICR mice [1]): 1.8 mg/kg; CNS TD (ICR mice [4]): 30 mg/kg
4 | CN1CCCc2c(OCC(=O)N(C)[C@H](CN3CC[C@H](O)C3)c3ccccc3)ccc(NS(C)(=O)=O)c21 [Compound 22, N-((S)-2-((S)-3-hydroxypyrrolidin-1-yl)-1-phenylethyl)-N-methyl-2-((1-methyl-8-(methylsulfonamido)-1,2,3,4-tetrahydroquinolin-5-yl)oxy)acetamide] | 8.1 | 0.008 | ED50 (ICR mice [1]): 2.5 mg/kg; CNS TD (ICR mice [4]): 60 mg/kg
5 | COCC(=O)Nc1ccc(OCC(=O)N(C)[C@H](CN2CC[C@H](O)C2)c2ccccc2)c2cccnc12 [Compound 35, N-((S)-2-((S)-3-hydroxypyrrolidin-1-yl)-1-phenylethyl)-2-((8-(2-methoxyacetamido)quinolin-5-yl)oxy)-N-methylacetamide] | 48 | 0.06 | 
6 | CN(C(=O)COc1ccc(NS(=O)(=O)N2CCCC2)c2ncccc12)[C@H](CN1CC[C@H](O)C1)c1ccccc1 [Compound 38] | 7.4 | 0.95 | 
7 | CN(C(=O)COc1ccc(NC(=N)N)c2ncccc12)[C@H](CN1CC[C@H](O)C1)c1ccccc1 [Compound 40, 2-((8-guanidinoquinolin-5-yl)oxy)-N-((S)-2-((S)-3-hydroxypyrrolidin-1-yl)-1-phenylethyl)-N-methylacetamide] | 1.1 | 0.007 | 
8 | CN(C(=O)COc1ccc(NCCO)c2ncccc12)[C@H](CN1CC[C@H](O)C1)c1ccccc1 [Compound 41] | 254 | 1.32 | 
9 | CN(C(=O)COc1ccc(NS(C)(=O)=O)c2ncccc12)[C@H](CN1CC[C@H](O)C1)c1cccc([N+](=O)[O-])c1 [Compound 42, N-((S)-2-((S)-3-hydroxypyrrolidin-1-yl)-1-(3-nitrophenyl)ethyl)-N-methyl-2-((8-(methylsulfonamido)quinolin-5-yl)oxy) acetamide] | 50 | 0.044 | 
10 | CC(=O)Nc1cccc([C@@H](CN2CC[C@H](O)C2)N(C)C(=O)COc2ccc(NS(C)(=O)=O)c3ncccc23)c1 [Compound 45, N-((S)-1-(3-acetamidophenyl)-2-((S)-3-hydroxypyrrolidin-1-yl)ethyl)-N-methyl-2-((8-(methylsulfonamido)quinolin-5-yl)oxy) acetamide] | 14 | 0.066 | 
11 | CN(C(=O)COc1cccc2ncccc12)[C@H](CN1CC[C@H](O)C1)c1cccc(NS(C)(=O)=O)c1 [Compound 46] | 9.5 | 0.042 | 
12 | CN(C)c1cccc([C@@H](CN2CC[C@H](O)C2)N(C)C(=O)COc2ccc(NS(C)(=O)=O)c3ncccc23)c1 [Compound 47, N-((S)-1-(3-dimethylaminophenyl)-2-((S)-3-hydroxypyrrolidin-1-yl)ethyl)-N-methyl-2-((8-(methylsulfonamido)quinolin-5-yl)oxy) acetamide] | 88 | 0.691 | 
13 | COc1cccc([C@@H](CN2CC[C@H](O)C2)N(C)C(=O)COc2ccc(NS(C)(=O)=O)c3ncccc23)c1 [Compound 49, N-((S)-2-((S)-3-hydroxypyrrolidin-1-yl)-1-(3-methoxyphenyl)ethyl)-N-methyl-2-((8-(methylsulfonamido)quinolin-5-yl)oxy) acetamide] | 1.9 | 0.032 | 
14 | CCOC(=O)COc1cccc([C@@H](CN2CC[C@H](O)C2)N(C)C(=O)COc2ccc(NS(C)(=O)=O)c3ncccc23)c1 [Compound 50] | 221 | 0.001 | 
15 | CN(C(=O)COc1ccc(NS(C)(=O)=O)c2ncccc12)[C@H](CN1CC[C@H](O)C1)c1cccc(OCC(=O)O)c1 [Compound 51] |  |  | IC50 (kappa opioid receptor [2]; [5]): 16 nM; EC50 (kappa opioid receptor [3]; [6]): 0.11 nM
16 | CN(C(=O)COc1ccc(NS(C)(=O)=O)c2ncccc12)[C@H](CN1CC[C@H](O)C1)c1cccc(F)c1 [Compound 52, N-((S)-1-(3-fluorophenyl)-2-((S)-3-hydroxypyrrolidin-1-yl)ethyl)-N-methyl-2-((8-(methylsulfonamido)quinolin-5-yl)oxy) acetamide] | 21 | 0.18 | 
17 | CN(C(=O)COc1ccc(NS(C)(=O)=O)c2ncccc12)[C@H](CN1CC[C@H](O)C1)c1cccc(C(F)(F)F)c1 [Compound 53, N-((S)-2-((S)-3-hydroxypyrrolidin-1-yl)-1-(3-(trifluoromethyl)phenyl)ethyl)-N-methyl-2-((8-(methylsulfonamido)quinolin-5-yl)oxy) acetamide] | 73 | 0.68 | 
18 | Cc1cccc([C@@H](CN2CC[C@H](O)C2)N(C)C(=O)COc2ccc(NS(C)(=O)=O)c3ncccc23)c1 [Compound 54, N-((S)-2-((S)-3-hydroxypyrrolidin-1-yl)-1-(3-methyl)ethyl)-N-methyl-2-((8-(methylsulfonamido)quinolin-5-yl)oxy)acetamide] | 14 | 0.098 | 
19 | CN(C(=O)COc1ccc2ccoc2c1)[C@H](CN1CC[C@H](O)C1)c1cccc([N+](=O)[O-])c1 [Compound 55, 2-(benzofuran-6-yloxy)-N-((S)-2-((S)-3-hydroxypyrrolidin-1-yl)-1-(3-nitrophenyl)ethyl)-N-methylacetamide] | 307 | 1.92 | 
20 | CN(C(=O)COc1ccc2ccoc2c1)[C@H](CN1CC[C@H](O)C1)c1cccc(NS(C)(=O)=O)c1 [Compound 56, 2-(benzofuran-6-yloxy)-N-((S)-2-((S)-3-hydroxypyrrolidin-1-yl)-1-(3-(methylsulfonamido)phenyl)ethyl)-N-methylacetamide] | 88 | 1.11 | 
21 | COC(=O)Nc1cccc([C@@H](CN2CC[C@H](O)C2)N(C)C(=O)COc2ccc3c(c2)OCO3)c1 [Compound 58, Methyl-(3-((S)-1-(2-(benzo[d][1,3]dioxol-5-yloxy)-N-methylacetamido)-2-((S)-3-hydroxypyrrolidin-1-yl)-ethyl)phenyl)carbamate] | 9.8 | 0.098 | 
22 | N-((S)-2-((S)-3-hydroxypyrrolidin-1-yl)-1-phenylethyl)- N-methyl-2-((8-(pyrrolidine-1-sulfonamido)-1,2,3,4- tetrahydroquinolin-5-yloxy)acetamide [Compound 39] |  |  | IC50 (kappa opioid receptor [2]; [5]): 0.95 nM; EC50 (kappa opioid receptor [3]; [6]): 0.088 nM
23 | N-((S)-2-((S)-3-hydroxypyrrolidin-1-yl)-1-phenylethyl)- N-methyl-2-((8-sulfonamido)-1,2,3,4-tetrahydroquinolin- 5-yloxy)acetamide [Compound 37] |  |  | In-vivo ED50 (ICR mice [1]): 6.2 mg/kg; IC50 (kappa opioid receptor [2]; [5]): 0.3 nM; EC50 (kappa opioid receptor [3]; [6]): 0.013 nM
24 | N-((S)-2-((S)-3-hydroxypyrrolidin-1-yl)-1-phenylethyl)- N-methyl-2-((8-sulfonamido)quinolin-5-yloxy)acetamide [Compound 36] |  |  | IC50 (kappa opioid receptor [2]; [5]): 7.8 nM; EC50 (kappa opioid receptor [3]; [6]): 1.12 nM
